Results from the NIST ThermoML archive (doi:10.1021/acs.jced.5b00948).

How the values were obtained:
[1] = mn = molality of the nth substance listed, in mol/kg; settings: 298.15 K, 100 kPa, Liquid, Alternating current cell with electrodes
[2] = refractive index (Na D-line) (dimensionless); settings: 298.15 K; 100 kPa; Liquid; Standard Abbe refractometry
[3] = wn = mass fraction of the nth substance listed; settings: 298.15 K, 100 kPa, Liquid, Vibrating tube method
[4] = refractive index (Na D-line) (dimensionless); wn = mass fraction of the nth substance listed; settings: 298.15 K, 100 kPa, Liquid, Standard Abbe refractometry

CCCCCCCC[n+]1ccn(C)c1.[Cl-] [1-methyl-3-octylimidazolium chloride] + O
[1]
Settings | electrical conductivity [S/m]
m1 = 0.03 | 0.245
m1 = 0.06 | 0.425
m1 = 0.124 | 0.712
m1 = 0.18 | 0.901
m1 = 0.242 | 1.03
m1 = 0.284 | 1.1
m1 = 0.319 | 1.123
m1 = 0.352 | 1.18
m1 = 0.389 | 1.204
m1 = 0.421 | 1.228
m1 = 0.48 | 1.26
m1 = 0.51 | 1.28
m1 = 0.541 | 1.301

O [water]
Settings | refractive index
[2] | 1.3325

CCCCn1cc[n+](C)c1.N[C@@H](CCC(=O)O)C(=O)[O-] [1-butyl-3-methylimidazolium (S)-2-amino-4-carboxybutanoate] + O
Settings | electrical conductivity [S/m] | mass density [kg/m3] | refractive index
[1], m1 = 0.061 | 0.277 | – | –
[1], m1 = 0.101 | 0.364 | – | –
[1], m1 = 0.142 | 0.466 | – | –
[1], m1 = 0.196 | 0.577 | – | –
[1], m1 = 0.253 | 0.676 | – | –
[1], m1 = 0.361 | 0.869 | – | –
[1], m1 = 0.439 | 1.01 | – | –
[1], m1 = 0.541 | 1.13 | – | –
[1], m1 = 0.628 | 1.205 | – | –
[1], m1 = 0.715 | 1.27 | – | –
[1], m1 = 0.848 | 1.37 | – | –
[1], m1 = 0.963 | 1.431 | – | –
[3], w1 = 0.111 | – | 1022.7 | –
[3], w1 = 0.183 | – | 1038.8 | –
[3], w1 = 0.273 | – | 1058.6 | –
[3], w1 = 0.353 | – | 1075.4 | –
[3], w1 = 0.42 | – | 1091 | –
[3], w1 = 0.491 | – | 1105.2 | –
[3], w1 = 0.561 | – | 1122.2 | –
[3], w1 = 0.628 | – | 1136.6 | –
[3], w1 = 0.717 | – | 1153.7 | –
[3], w1 = 0.773 | – | 1167.1 | –
[3], w1 = 0.836 | – | 1181.6 | –
[3], w1 = 0.863 | – | 1185.8 | –
[4], w1 = 0.05 | – | – | 1.3448
[4], w1 = 0.103 | – | – | 1.3584
[4], w1 = 0.152 | – | – | 1.3724
[4], w1 = 0.2 | – | – | 1.3838
[4], w1 = 0.299 | – | – | 1.4025
[4], w1 = 0.377 | – | – | 1.4179
[4], w1 = 0.492 | – | – | 1.4473
[4], w1 = 0.576 | – | – | 1.4684
